Values quoted from earlier work as cited in PMC2643498 (The Journal of Biological Chemistry, 2009).

Columns and labels:
recombinant NCED = conditions: read-out: Ki (NCED)
AtNCED3 = conditions: 100 μM
AtCCD1 = conditions: 100 μM

For abamineSG, the Ki (recombinant NCED) is listed as 18.5 µM, the “inhibition of AtNCED3” value (AtNCED3) is listed as 78% and the “inhibition of AtCCD1” value (AtCCD1) is listed as ≤ 20%.
